Laboratory results reported in patent US20100298300A1, “TRIAZOLOPYRAZINE COMPOUNDS USEFUL FOR THE TREATMENT OF DEGENERATIVE & INFLAMMATORY DISEASES” (priority 2006, published 2010).
pEC50, pIC50: −log10 of the molar value.

Legend:
[1] = system: MMP1 expression by activated primary synovial fibroblasts; assay: 'MMP assay': MMP1 expression by complex trigger activated synovial fibroblasts (MMP1 ELISA); type: cell-based; conditions: Homo sapiens, Fibroblast; Table 3; RASFs, complex trigger, 48 hrs, MMP1 ELISA
MAPKAPK5 = target: T1, MAPKAPK5 (Homo sapiens, UniProt Q8IW41); assay: MAPKAP-K5 assay (FlashPlate kinase assay)
T1 sequence (Q8IW41 1-471 isoform Q8IW41-2): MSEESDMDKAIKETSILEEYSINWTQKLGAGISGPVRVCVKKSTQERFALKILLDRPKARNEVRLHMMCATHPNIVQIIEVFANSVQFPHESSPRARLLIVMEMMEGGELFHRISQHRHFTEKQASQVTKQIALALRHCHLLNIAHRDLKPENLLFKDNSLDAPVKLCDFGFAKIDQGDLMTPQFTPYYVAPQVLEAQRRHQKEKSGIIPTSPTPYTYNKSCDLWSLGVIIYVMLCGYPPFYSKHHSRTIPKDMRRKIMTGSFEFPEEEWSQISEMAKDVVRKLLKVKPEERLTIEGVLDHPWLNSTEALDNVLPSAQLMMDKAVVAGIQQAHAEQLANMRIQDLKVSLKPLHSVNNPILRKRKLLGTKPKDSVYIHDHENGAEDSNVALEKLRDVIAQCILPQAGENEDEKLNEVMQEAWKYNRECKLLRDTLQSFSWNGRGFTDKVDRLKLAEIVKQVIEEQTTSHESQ

[2] = system: TNFα release by human PBMCs; assay: Cytokine release by LPS stimulated human PBMCs (TNFα ELISA); type: cell-based; conditions: PBMC, 24 h, Table 5, LPS 1 μg/mL

Row | pIC50 (MAPKAPK5) | Structure (SMILES) | pEC50 [1] | pEC50 [2]
1 | 6.00 to 6.30 | CN1CCN(c2ccc(Nc3ncc(-c4ccc(C(N)=O)s4)n4ncnc34)cc2)CC1 [Compound 9, 5-{8-[4-(4-Methyl-piperazin-1-yl)-phenylamino]-[1,2,4]triazolo[1,5-a]pyrazin-5-yl}-thiophene-2-carboxylic acid amide] | 6.00 to 6.30 | 6.30 to 7.00
2 | < 6.00 | CC(C)N1CCC(c2ccc(Nc3ncc(-c4cn[nH]c4)n4ncnc34)cn2)CC1 [Compound 172] | < 6.00 | < 6.00
3 | 6.00 to 6.30 | NC(=O)c1cc(-c2cnc(Nc3ccc(N4CCN(CC(F)(F)F)CC4)nc3)c3ncnn23)cs1 [Compound 56, 4-(8-{6-[4-(2,2,2-Trifluoroethyl)piperazin-1-yl]-pyridin-3-ylamino}-[1,2,4]triazolo[1,5-a]pyrazin-5-yl)thiophene-2-carboxylic acid amide] | 6.00 to 6.30 | < 6.00
4 | < 6.00 | CC(C)N1CCN(c2ccc(Nc3ncc(-c4cc(F)c(C(N)=O)c(F)c4)n4ncnc34)cc2)CC1 [Compound 26] | < 6.00 | 6.00 to 6.30
5 | < 6.00 | Cc1[nH]ncc1-c1cnc(Nc2ccc(N3CCN(C)CC3)cc2)c2ncnn12 [Compound 16, 5-(5-Methyl-1H-pyrazol-4-yl)-N-(4-(4-methylpiperazin-1-yl)phenyl)-[1,2,4]triazolo[1,5-a]pyrazin-8-amine] | < 6.00 | < 6.00
6 | < 6.00 | Fc1cc(Nc2ncc(-c3cn[nH]c3)n3ncnc23)ccc1N1CCOCC1 [Compound 17, (3-Fluoro-4-morpholinophenyl)-5-(1H-pyrazol-4-yl)-[1,2,4]triazolo[1,5-a]pyrazin-8-amine] | < 6.00 | < 6.00
7 | < 6.00 | OCc1cc(Nc2ncc(-c3cn[nH]c3)n3ncnc23)ccc1N1CCOCC1 [Compound 37, {5-[5-(1H-Pyrazol-4-yl)-[1,2,4]triazolo[1,5-a]pyrazin-8-ylamino]-2-morpholinophenyl}methanol] | 6.00 to 6.30 | < 6.00
8 | 7.00 to 9.00 | CC(C)N1CCC(c2ccc(Nc3ncc(-c4ccc5c(c4)CNC5=O)n4ncnc34)cc2)CC1 [Compound 92, 5-{8-[4-(1-Isopropylpiperidin-4-yl)phenylamino]-[1,2,4]triazolo[1,5-a]pyrazin-5-yl}-2,3-dihydroisoindol-1-one] | 6.30 to 7.00 | < 6.00
9 | 6.00 to 6.30 | CC(C)(C)N1CCN(c2ccc(Nc3ncc(-c4cn[nH]c4)n4ncnc34)cc2)CC1 [Compound 103] | 6.00 to 6.30 | 6.30 to 7.00
10 | < 6.00 | CN1CCN(c2ccc(Nc3ncc(-c4ccc(C(N)=O)cc4F)n4ncnc34)cc2)CC1 [Compound 8] | 6.00 to 6.30 | < 6.00
11 | 6.00 to 6.30 | Cc1[nH]ncc1-c1cnc(Nc2ccc(N3CCOCC3)cc2)c2ncnn12 [Compound 12, 5-(5-Methyl-1H-pyrazol-4-yl)-N-(4-morpholinophenyl)-[1,2,4]triazolo[1,5-a]pyrazin-8-amine] | 6.00 to 6.30 | < 6.00
12 | < 6.00 | NC(=O)c1cc(Nc2ncc(-c3cn[nH]c3)n3ncnc23)ccc1N1CCOCC1 [Compound 19, 5-(5-(1H-Pyrazol-4-yl)-[1,2,4]triazolo[1,5-a]pyrazin-8-ylamino)-2-morpholinobenzamide] | < 6.00 | < 6.00
13 | 6.30 to 7.00 | C[C@@H]1CN(c2ccc(Nc3ncc(-c4cn[nH]c4)n4ncnc34)cc2)[C@@H](C)CN1C [Compound 31] | < 6.00 | < 6.00
14 | 7.00 to 9.00 | O=C1NCc2cc(-c3cnc(Nc4ccc(N5CCNCC5=O)cc4)c4ncnn34)ccc21 [Compound 105, 5-{8-[4-(2-Oxo-piperazin-1-yl)-phenylamino]-[1,2,4]triazolo[1,5-a]pyrazin-5-yl}-2,3-dihydro-isoindol-1-one] | < 6.00 | < 6.00
15 | < 6.00 | O=C1NCc2cc(-c3cnc(Nc4ccc(F)cc4)c4ncnn34)ccc21 [Compound 117] | 6.30 to 7.00 | < 6.00
16 | 7.00 to 9.00 | O=C1NCc2cc(-c3cnc(Nc4ccc(N5CCOCC5)nc4)c4ncnn34)ccc21 [Compound 87] | 6.30 to 7.00 | < 6.00
17 | < 6.00 | O=C1CCc2cc(-c3cnc(Nc4ccc(N5CCOCC5)cc4)c4ncnn34)ccc2N1 [Compound 39] | < 6.00 | < 6.00
18 | < 6.00 | NC(=O)c1ccc(-c2cnc(Nc3ccc(N4CCOCC4)cc3)c3ncnn23)c(F)c1 [Compound 10] | 6.00 to 6.30 | < 6.00
19 | 7.00 to 9.00 | CC(C)N1CCN(c2ccc(Nc3ncc(-c4ccc5c(c4)CNC5=O)n4ncnc34)cn2)CC1 [Compound 79, 5-(8-(6-(4-Isopropylpiperazin-1-yl)pyridin-3-ylamino)-[1,2,4]triazolo[1,5-a]pyrazin-5-yl)isoindolin-1-one] | 6.00 to 6.30 | < 6.00
20 | < 6.00 | CC(C)N1CCN(c2ccc(Nc3ncc(-c4cn[nH]c4)n4ncnc34)cc2C(F)(F)F)CC1 [Compound 171, [4-(4-Isopropylpiperazin-1-yl)-3-trifluoromethylphenyl]-[5-(1H-pyrazol-4-yl)-[1,2,4]triazolo[1,5-a]pyrazin-8-yl]amine] | < 6.00 | 6.00 to 6.30
21 | 6.30 to 7.00 | NC(=O)c1cc(-c2cnc(Nc3ccc(N4CCOCC4)cc3)c3ncnn23)cs1 [Compound 15, 4-[8-(4-Morpholin-4-yl-phenylamino)-[1,2,4]triazolo[1,5-a]pyrazin-5-yl]-thiophene-2-carboxylic acid amide] | 6.30 to 7.00 | 6.00 to 6.30
22 | < 6.00 | c1cc(-c2cnc(Nc3ccc(N4CCOCC4)cc3)c3ncnn23)[nH]n1 [Compound 23, (4-Morpholin-4-yl-phenyl)-[5-(2H-pyrazol-3-yl)-[1,2,4]triazolo[1,5-a]pyrazin-8-yl]-amine] | < 6.00 | < 6.00
23 | < 6.00 | O=C1NS(=O)(=O)c2cc(-c3cnc(Nc4ccc(N5CCOCC5)cc4)c4ncnn34)ccc21 [Compound 53, 6-[8-(4-Morpholin-4-yl-phenylamino)-[1,2,4]triazolo[1,5-a]pyrazin-5-yl]-1,1-dioxo-1,2-dihydro-1λ^6-benzo[d]isothiazol-3-one] | 6.00 to 6.30 | < 6.00
24 | < 6.00 | c1nc2c(Nc3ccc(N4CCOCC4)cc3)ncc(-c3ccsc3)n2n1 [Compound 50, (4-Morpholin-4-ylphenyl)-(5-thiophen-3-yl-[1,2,4]triazolo[1,5-a]pyrazin-8-yl)amine] | 6.30 to 7.00 | < 6.00
25 | < 6.00 | O=C1NCc2cc(-c3cnc(Nc4ccc(F)cc4F)c4ncnn34)ccc21 [Compound 174] | < 6.00 | < 6.00
26 | 7.00 to 9.00 | CC(C)N1CCN(c2ccc(Nc3ncc(-c4cc(F)c5c(c4)CNC5=O)n4ncnc34)cc2)CC1 [Compound 108, 7-Fluoro-5-{8-[4-(4-isopropylpiperazin-1-yl)-phenylamino]-[1,2,4]triazolo[1,5-a]pyrazin-5-yl}-2,3-dihydroisoindol-1-one] | < 6.00 | < 6.00
